Reference: patent EP4714948A1, “COMPOUND USED FOR EGFR PROTEIN DEGRADATION, AND USE THEREOF” (TYK Medicines, Inc., priority 2023, dated 2024)

What was measured:
[1] = Pharmacokinetic test on male SD rats; format: in vivo; details: gavage (p.o.), 10 mg/kg, plasma; for AUC(0-inf) / AUC(0-t) / Cmax / MRT last / Tmax: rat, po
Method: Healthy adult SD rats, male, a total of 3, 6-8 weeks old; Weighing 200-300 grams.
EDTA-Na2 anticoagulant: 11.2 g of EDTA-Na2 was weighted and placed into a reagent bottle. 100 mL of physiological saline was added and the mixture was shaken until completely dissolved. After preparation, the solution was aliquoted into 1.5 mL centrifuge tubes, each containing approximately 20 uL, for use in whole blood sample collection.
Approximately 10 mg of the test sample was accurately weighed. DMSO accounting for 10% of the total volume was added to dissolve the sample. Subsequently, 0.5% MC solvent accounting for 90% of the total volume was slowly added while stirring. The mixture was sonicated and vortexed evenly, and a visually homogeneous preparation solution was obtained, with a concentration of 1 mg/mL. This solution should be freshly prepared immediately before use.
0.2 mL of the sample was pipetted into a 1.5 mL centrifuge tube and stored at -80°C for concentration analysis of the dosing solution.
Animals were kept in rat cages and fasted for no less than 10 hours on the day before the experiment, but were allowed to drink water. The animals were individually weighed and marked on their tails. Prior to dosing, blank blood samples were collected from each animal via the tail vein.
• Administration route: gavage (p.o.) • Dosage concentration: 1mg/ml • Dosage: 10 mg/kg • Dosage volume: 10 mL/kg
Operation process: The rat was grasped with a left hand protected by a bite-resistant glove and held in an upright position. The gavage needle was inserted through the mouth and advanced towards the pharynx. The needle was advanced gently, ensuring no significant resistance was felt. The drug was then injected into the stomach.
At 0.5 h, 1 h, 2 h, 4 h, 6 h, 8 h, 12 h, and 24 h post-dosing, 0.1-0.2 mL of whole blood was collected from each test animal into EDTA-Na2 anticoagulant tubes. The tubes were mixed by inverting 3-4 times. The samples were centrifuged at 2000 × g and 4 °C for 5 minutes. The upper plasma layer was to separated, promptly transferred to -80 °C for storage until analysis. The blood was collected via tail vein.
A quantitative detection method for the test compound was established using a Shimadzu liquid chromatography system and a Triple Quad™ 6500+ AB mass spectrometry (MS) system. This method was used to analyze the concentration of the parent drug in plasma. The variation of the analysis results was controlled using quality control (QC) samples, and the accuracy of the QC samples was required to be within the range of 80%-120%.
The main pharmacokinetic parameters were calculated using the non-compartmental model (NCA) with the WinNonlin Phoenix software. These parameters include: area under the concentration-time curve (AUC(0-t) and AUC(0-∞)), elimination half-life (T1/2), maximum plasma concentration (Cmax), and time to reach maximum plasma concentration (Tmax), etc.

[2] = target: EGFR in BAF3-LTC (Baf3-L858R-T780M-C797S) (Homo sapiens, UniProt P00533, C797S/L858R/T790M); assay: EGFR PROTAC HTRF experiment (total EGFR degradation); format: cell-based; details: BAF3-LTC cells, 16 hours incubation
PC-9 = assay: Cell antiproliferative assay (CTG, 72 h); format: cell-based; details: Homo sapiens, PC-9 (EGFR exon 19 deletion)
Method: (§1) H1975 has EGFR T790M/L858R dual mutation, PC-9 has EGFR exon 19 deletion mutation, and HCC827 has exon 19 deletion mutation. CellCounting Lite 2.0, Trypsin EDTA, 37 °C CO2 incubator, cell counter, EnVision Serial No.1050454.
(§2) • (A) Trypsin EDTA was used to digest log-phase cells, medium was added to terminate the digestion reaction, and a cell suspension was prepared by blowing and mixing with a pipette. • (B) Cell concentration was determined using Vi-cell, and a suspension of 15,000-25,000 cells per milliliter was made depending on the purpose of the experiment and the characteristics of the cells. • (C) After the cell suspension was ready, it was gently mixed and each well was added with 100µL so that the cell density to be tested was 1,500- 2,500 per well.
(§3) • A) About 2 mg of compound was weighed, and the volume of DMSO required was calculated according to the formula: compound mass (mg)*compound purity (%)/compound molecular weight*1000. • (B) The inoculated cell culture plates were incubated in an incubator. About 24 hours later, compounds were added at gradient concentrations. • (C) 10mM of compound reservoir solution was diluted to […] with medium, and […] of the compound solution was added sequentially to the second column of the deep-well plate, and […] of medium containing 0.5% DMSO was added to the third to eleventh columns. • D) Gradient dilution: 125 µl of solution was pipetted from the second column and added to the third column, after mixing; another 125 µl of solution was pipetted from the third column and added to the fourth column, and the operation was repeated until the tenth column. • (E) 25 µl of compound was pipetted from the deep-well plate into a 96-well culture plate using a multichannel pipette, and each compound was run in triplicate on the 96-well plate. A 1:4 concentration gradient was established on the 96-well plate, with a final highest concentration of 10,000 nM.
(§4) • (A) 96-well plates were incubated in an incubator for 72 h. The effect of the compounds was observed under an inverted microscope. • (B) 25 µl of CTG solution was added to each well. The plate was incubated on a shaker for 10 minutes and the OD value of each well was read.
(§5) The survival rate ( % Cell Viability) was calculated using the following formula: %Cell Viability = 100% × (Lum_Sample−Lum_LC)/(Lum_HC−Lum_LC) [formula] • Lum_HC: Cell reading of 0.1% DMSO control group • Lum_Sample: Cell readings of compound addition group • Lum_LC: Reading of blank medium • IC50 values were obtained by curve fitting using GraphPad Prism 8 software.

HCC827 = assay: Cell antiproliferative assay (CTG, 72 h); format: cell-based; details: Homo sapiens, HCC827 (exon 19 deletion)
Method: as §1, §2, §3, §4, §5

H1975 = assay: Cell antiproliferative assay (CTG, 72 h); format: cell-based; details: Homo sapiens, NCI-H1975, H1975 (EGFR T790M/L858R)
Method: as §1, §2, §3, §4, §5

[3] = target: EGFR in BAF3-DTC (Baf3-19del-T780M-C797S) (Homo sapiens, UniProt P00533, C797S/DEL746-750/T790M); assay: EGFR PROTAC HTRF experiment (total EGFR degradation); format: cell-based; details: BAF3-DTC cells, 16 hours incubation
EGFR in BAF3-DTC (Baf3-19del-T780M-C797S), sequence (P00533 with tags, fused parts or gaps DEL746-750/T790M/C797S): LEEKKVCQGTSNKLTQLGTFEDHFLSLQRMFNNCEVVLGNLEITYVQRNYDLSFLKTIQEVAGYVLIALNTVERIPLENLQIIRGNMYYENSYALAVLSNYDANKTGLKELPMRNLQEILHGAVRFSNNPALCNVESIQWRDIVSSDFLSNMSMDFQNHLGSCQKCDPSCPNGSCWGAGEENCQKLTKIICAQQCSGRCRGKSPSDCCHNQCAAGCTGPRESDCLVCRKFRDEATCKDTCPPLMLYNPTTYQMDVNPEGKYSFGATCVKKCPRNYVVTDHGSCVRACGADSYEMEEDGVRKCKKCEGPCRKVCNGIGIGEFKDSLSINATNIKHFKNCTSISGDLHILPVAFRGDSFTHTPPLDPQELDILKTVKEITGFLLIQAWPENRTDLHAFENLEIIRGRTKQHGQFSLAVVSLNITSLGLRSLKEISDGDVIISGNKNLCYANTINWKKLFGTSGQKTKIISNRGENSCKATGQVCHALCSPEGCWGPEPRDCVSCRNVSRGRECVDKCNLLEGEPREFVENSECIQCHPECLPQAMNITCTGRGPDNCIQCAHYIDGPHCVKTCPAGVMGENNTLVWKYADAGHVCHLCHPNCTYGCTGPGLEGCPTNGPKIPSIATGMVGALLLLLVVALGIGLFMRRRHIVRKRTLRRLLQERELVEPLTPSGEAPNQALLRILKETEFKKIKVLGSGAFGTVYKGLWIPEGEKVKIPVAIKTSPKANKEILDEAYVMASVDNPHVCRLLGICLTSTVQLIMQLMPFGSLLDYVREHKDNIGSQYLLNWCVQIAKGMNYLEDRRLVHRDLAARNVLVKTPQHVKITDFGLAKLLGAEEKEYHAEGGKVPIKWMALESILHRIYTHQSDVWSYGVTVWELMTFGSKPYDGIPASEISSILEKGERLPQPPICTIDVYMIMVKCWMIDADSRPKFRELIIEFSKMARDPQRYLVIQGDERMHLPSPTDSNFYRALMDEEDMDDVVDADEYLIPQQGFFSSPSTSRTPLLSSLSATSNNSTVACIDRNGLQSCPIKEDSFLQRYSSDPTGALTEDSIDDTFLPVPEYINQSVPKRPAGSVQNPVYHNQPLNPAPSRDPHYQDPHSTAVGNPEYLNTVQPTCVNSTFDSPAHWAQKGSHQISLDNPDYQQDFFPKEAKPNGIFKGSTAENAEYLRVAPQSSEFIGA

EGFR in BAF3-LTC (Baf3-L858R-T780M-C797S), sequence (P00533 25-1210 T790M/C797S/L858R): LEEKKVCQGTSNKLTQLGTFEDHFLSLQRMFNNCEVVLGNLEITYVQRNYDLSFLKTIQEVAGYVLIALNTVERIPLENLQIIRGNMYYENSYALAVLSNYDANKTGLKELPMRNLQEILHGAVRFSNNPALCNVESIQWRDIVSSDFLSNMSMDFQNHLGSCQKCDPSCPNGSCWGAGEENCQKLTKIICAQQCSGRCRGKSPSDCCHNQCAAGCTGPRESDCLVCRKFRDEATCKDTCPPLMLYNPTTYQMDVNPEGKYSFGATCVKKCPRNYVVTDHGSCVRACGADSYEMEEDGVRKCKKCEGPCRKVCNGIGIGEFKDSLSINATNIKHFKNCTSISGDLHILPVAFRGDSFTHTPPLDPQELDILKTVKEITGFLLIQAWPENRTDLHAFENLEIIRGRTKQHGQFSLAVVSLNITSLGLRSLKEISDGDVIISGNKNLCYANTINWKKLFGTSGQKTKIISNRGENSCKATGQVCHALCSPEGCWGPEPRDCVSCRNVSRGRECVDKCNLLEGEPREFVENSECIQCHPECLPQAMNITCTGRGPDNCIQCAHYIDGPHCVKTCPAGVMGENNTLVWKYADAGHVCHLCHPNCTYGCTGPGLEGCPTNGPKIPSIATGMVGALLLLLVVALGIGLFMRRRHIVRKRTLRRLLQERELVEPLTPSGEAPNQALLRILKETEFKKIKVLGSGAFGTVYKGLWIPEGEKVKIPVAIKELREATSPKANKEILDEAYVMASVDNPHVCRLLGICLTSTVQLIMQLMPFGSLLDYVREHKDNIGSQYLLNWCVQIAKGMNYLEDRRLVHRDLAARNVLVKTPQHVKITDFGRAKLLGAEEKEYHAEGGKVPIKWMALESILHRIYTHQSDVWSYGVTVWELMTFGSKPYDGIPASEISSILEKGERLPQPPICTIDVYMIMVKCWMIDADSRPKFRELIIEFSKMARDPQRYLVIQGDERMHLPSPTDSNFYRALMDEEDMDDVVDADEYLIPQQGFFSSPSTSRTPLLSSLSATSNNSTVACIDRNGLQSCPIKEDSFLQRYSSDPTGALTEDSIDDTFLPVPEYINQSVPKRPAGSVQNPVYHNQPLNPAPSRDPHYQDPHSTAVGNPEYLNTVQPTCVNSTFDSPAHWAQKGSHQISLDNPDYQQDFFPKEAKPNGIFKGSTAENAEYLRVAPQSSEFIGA

SMILES	HL_ [1] [h]	AUC(0-inf) [1] [ng·h/mL]	AUC(0-t) [1] [ng·h/mL]	Cmax [1] [ng/mL]	MRT last [1] [h]	Tmax [1] [h]	DC50 [2] [µM]	Dmax [2] [%]	IC50 (PC-9) [µM]	IC50 (HCC827) [µM]	IC50 (H1975) [µM]	DC50 [3] [µM]	Dmax [3] [%]
CCc1cc(Nc2ncc(Cl)c(Nc3ccccc3C(=O)NC)n2)c(OC)cc1N1CCN(C(=O)CN2CCN(c3ccc(NC4CCC(=O)NC4=O)cc3F)CC2)CC1 (centres unmarked) [Compound T-029]	2.51	8210	7900	1010	5.65	4.67	0.1 to 1	70 to 100	0.1 to 1	0.1 to 1	0.01 to 0.1	0.01 to 0.1	50 to 70
CCc1cc(Nc2ncc(Cl)c(Nc3ccccc3C(=O)NC)n2)c(OC)cc1N1CCN(C(=O)CC2(O)CCN(c3ccc(NC4CCC(=O)NC4=O)cc3F)CC2)CC1 (centres unmarked) [Compound T-037]	2.61	24400	24000	2290	7.49	2.67	0.1 to 1	50 to 70	0.1 to 1	0.1 to 1	0.01 to 0.1	0.1 to 1	50 to 70
CCc1cc(Nc2ncc(Cl)c(Nc3ccccc3C(=O)NC)n2)c(OC)cc1N1CCN(C(=O)CN2CCC(c3ccc(NC4CCC(=O)NC4=O)cc3F)CC2)CC1 (centres unmarked) [Compound T-067]	4.39	11300	11000	1020	7.78	4	0.01 to 0.1	70 to 100	0.1 to 1	0.1 to 1	< 0.01	0.01 to 0.1	70 to 100
CCc1cc(Nc2ncc(Cl)c(Nc3ccccc3C(=O)NC)n2)c(OC)cc1N1CCN(CCN2CCC(c3ccc(NC4CCC(=O)NC4=O)cc3)CC2)CC1 (centres unmarked) [Compound T-023]	9.28	76300	61600	4060	10	6	0.01 to 0.1	70 to 100	0.1 to 1	0.01 to 0.1	< 0.01	0.01 to 0.1	70 to 100
CNC(=O)c1ccccc1Nc1nc(Nc2cc(C)c(N3CCN(CCN4CCC(c5ccc(NC6CCC(=O)NC6=O)cc5)CC4)CC3)cc2OC)ncc1Cl (centres unmarked) [Compound T-021]	–	–	–	–	–	–	0.1 to 1	70 to 100	0.1 to 1	0.01 to 0.1	< 0.01	0.1 to 1	70 to 100
